According to patent US10165777B2, “Substituted pyrazolylpyrazole derivative and use of same as herbicide” (KYOYU AGRI CO., LTD., priority 2015, dated 2019):

What was measured:
Type in all cases: in vivo
[1] = test system: Echinochloa crus-galli; experiment: Paddy herbicidal activity test; conditions: irrigated pot, treated at 3.5 leaf stage of Echinochloa crus-galli, 30 days
Description: (§1) 1. Paddy Herbicidal Activity Test Rice paddy soil was filled into a 1/10000 are pot followed by the addition of suitable amounts of water and chemical fertilizer, kneading, seeding with Echinochloa crus-galli, Monochoria vaginalis and Scirpus juncoides and maintaining in an irrigated state at a water depth of 3 cm. Wettable powders of Target Compound (I) shown in Table 1 prepared in compliance with the preparation examples were diluted with a suitable amount of water, rice plants in the 2.0 leaf stage were transplanted during 3.5 leaf stage of Echinochloa crus-galli, and treated by dropping in chemical in the prescribed amount per 10 are using a pipette. After treating for 30 days in a glass greenhouse at an average atmospheric temperature of 30° C., the herbicidal efficacy thereof was investigated. Evaluation of herbicidal efficacy was carried out by comparing growth inhibition rate (%) with an untreated group, while evaluation of phytotoxicity was carried out by comparing growth inhibition rate (%) with the state of a complete eradication group, and were evaluated at 11 levels indicated below.

[2] = test system: Monochoria vaginalis; experiment: Paddy herbicidal activity test; conditions: irrigated pot, 30 days
Description: as §1

[3] = test system: Scirpus juncoides; experiment: Paddy herbicidal activity test; conditions: irrigated pot, 30 days
Description: as §1

[4] = test system: Oryza sativa; experiment: Paddy herbicidal activity test, phytotoxicity to transplanted rice; conditions: rice transplanted in 2.0 leaf stage, 30 days
Description: as §1

[5] = test system: Amaranthus retroflexus; experiment: Farming soil treatment test; conditions: soil surface spray prior to weed growth, 30 days
Description: (§2) Field soil was filled into a 1/6000 are pot followed by seeding with Digitaria ciliaris, Chenopodium album and Amaranthus retroflexus and covering with soil. Wettable powders of compounds of formula (I) shown in Table 1 prepared in compliance with the preparation examples were diluted with water to the prescribed amount of chemical and uniformly sprayed onto each soil surface layer using 100 liters of sprayed water per 10 are prior to weed growth following seeding. After treating for 30 days in a glass greenhouse at an average atmospheric temperature of 30° C., the herbicidal efficacy thereof was investigated. Evaluation of herbicidal efficacy was carried out in the same manner as the above-mentioned Test Example 1.

[6] = test system: Chenopodium album; experiment: Farming soil treatment test; conditions: soil surface spray prior to weed growth, 30 days
Description: as §2

[7] = test system: Digitaria ciliaris; experiment: Farming soil treatment test; conditions: soil surface spray prior to weed growth, 30 days
Description: as §2

[8] = test system: Amaranthus retroflexus; experiment: Weed foliar treatment test (Test 3, 1.0 to 2.0 leaf stage); conditions: foliar spray at 1.0 to 2.0 leaf stage of Digitaria ciliaris, 3 weeks
Description: (§3) Soil was filled into a 1/6000 are pot followed by seeding with Digitaria ciliaris, Chenopodium album and Amaranthus retroflexus, covering with soil, and cultivating in a glass greenhouse at an average atmospheric temperature of 25° C. Wettable powders of Target Compound (I) shown in Table 1 prepared in compliance with the preparation examples were diluted with water to the prescribed amount of chemical and uniformly sprayed onto the weeds using 150 liters of sprayed water per 10 are when Digitaria ciliaris had grown to the 1.0 to 2.0 leaf stage. After treating for 3 weeks in a glass greenhouse at an average atmospheric temperature of 25° C., the herbicidal efficacy thereof was investigated. Evaluation of herbicidal efficacy was carried out in the same manner as the above-mentioned Test Example 1.

[9] = test system: Chenopodium album; experiment: as above; conditions: foliar spray at 1.0 to 2.0 leaf stage of Digitaria ciliaris, 3 weeks
Description: as §3

[10] = test system: Digitaria ciliaris; experiment: as above; conditions: foliar spray at 1.0 to 2.0 leaf stage of Digitaria ciliaris, 3 weeks
Description: as §3

[11] = test system: Digitaria ciliaris; experiment: Weed foliar treatment test (Test 4, 4.0 to 5.0 leaf stage); conditions: 10 g a.i./10 a; foliar spray at 4.0 to 5.0 leaf stage of Digitaria ciliaris (plant height 10 cm to 15 cm); 20 days
Description: (§4) Field soil was filled into a 1/4500 are pot followed by seeding with Digitaria ciliaris and Galinsoga parviflora, covering with soil and cultivating in a glass greenhouse at an average atmospheric temperature of 25° C.
(§5) Wettable powders of Target Compound (I) shown in Table 1 prepared in compliance with the preparation examples were diluted with water to the prescribed amount of chemical and uniformly sprayed onto the weeds using 100 liters of sprayed water per 10 are when Digitaria ciliaris had grown to the 4.0 to 5.0 leaf stage (plant height: 10 cm to 15 cm).
(§6) After treating for 20 days in a glass greenhouse at an average atmospheric temperature of 25° C., the herbicidal efficacy thereof was investigated.
(§7) Evaluation of herbicidal efficacy was carried out in the same manner as the above-mentioned Test Example 1.

[12] = test system: Galinsoga parviflora; experiment: as above; conditions: 10 g a.i./10 a; foliar spray at 4.0 to 5.0 leaf stage of Digitaria ciliaris; 20 days
Description: as §4, §5, §6, §7

Structure (SMILES) | herbicidal efficacy, Echinochloa crus-galli ([1]; 1 g a.i./10 a) | herbicidal efficacy, Echinochloa crus-galli ([1]; 5 g a.i./10 a) | herbicidal efficacy, Monochoria vaginalis ([2]; 1 g a.i./10 a) | herbicidal efficacy, Monochoria vaginalis ([2]; 5 g a.i./10 a) | herbicidal efficacy, Scirpus juncoides ([3]; 1 g a.i./10 a) | herbicidal efficacy, Scirpus juncoides ([3]; 5 g a.i./10 a) | phytotoxicity, Oryza sativa ([4]; 1 g a.i./10 a) | phytotoxicity, Oryza sativa ([4]; 5 g a.i./10 a) | herbicidal efficacy, Amaranthus retroflexus ([5]; 5 g a.i./10 a) | herbicidal efficacy, Amaranthus retroflexus ([5]; 10 g a.i./10 a) | herbicidal efficacy, Chenopodium album ([6]; 5 g a.i./10 a) | herbicidal efficacy, Chenopodium album ([6]; 10 g a.i./10 a) | herbicidal efficacy, Digitaria ciliaris ([7]; 5 g a.i./10 a) | herbicidal efficacy, Digitaria ciliaris ([7]; 10 g a.i./10 a) | herbicidal efficacy, Amaranthus retroflexus ([8]; 5 g a.i./10 a) | herbicidal efficacy, Amaranthus retroflexus ([8]; 10 g a.i./10 a) | herbicidal efficacy, Chenopodium album ([9]; 5 g a.i./10 a) | herbicidal efficacy, Chenopodium album ([9]; 10 g a.i./10 a) | herbicidal efficacy, Digitaria ciliaris ([10]; 5 g a.i./10 a) | herbicidal efficacy, Digitaria ciliaris ([10]; 10 g a.i./10 a) | further results
N#Cc1cnn(-c2nn3c(c2Cl)CCCC3)c1/C=C/c1ncccn1 [Compound 3.39, reference compound] | 1 (10% to less than 20%) | 2 (20% to less than 30%) | 2 (20% to less than 30%) | 3 (30% to less than 40%) | 0 (0% to less than 10% (growth inhibition rate)) | 0 (0% to less than 10% (growth inhibition rate)) | 0 (0% to less than 10% (growth inhibition rate)) | 1 (10% to less than 20%) | 2 (20% to less than 30%) | 3 (30% to less than 40%) | 4 (40% to less than 50%) | 4 (40% to less than 50%) | 3 (30% to less than 40%) | 4 (40% to less than 50%) | 1 (10% to less than 20%) | 2 (20% to less than 30%) | 4 (40% to less than 50%) | 5 (50% to less than 60%) | 2 (20% to less than 30%) | 3 (30% to less than 40%) | herbicidal efficacy, Digitaria ciliaris [11]: 2 (20% to less than 30%); herbicidal efficacy, Galinsoga parviflora [12]: 3 (30% to less than 40%)
N#Cc1cnn(-c2nn3c(c2Cl)CCCC3)c1/C=C/c1ccccn1 [Compound 3.43, reference compound] | 2 (20% to less than 30%) | 3 (30% to less than 40%) | 3 (30% to less than 40%) | 3 (30% to less than 40%) | 0 (0% to less than 10% (growth inhibition rate)) | 1 (10% to less than 20%) | 1 (10% to less than 20%) | 2 (20% to less than 30%) | 2 (20% to less than 30%) | 2 (20% to less than 30%) | 2 (20% to less than 30%) | 3 (30% to less than 40%) | 1 (10% to less than 20%) | 3 (30% to less than 40%) | 0 (0% to less than 10% (growth inhibition rate)) | 2 (20% to less than 30%) | 3 (30% to less than 40%) | 4 (40% to less than 50%) | 1 (10% to less than 20%) | 3 (30% to less than 40%) | herbicidal efficacy, Digitaria ciliaris [11]: 1 (10% to less than 20%); herbicidal efficacy, Galinsoga parviflora [12]: 3 (30% to less than 40%)
N#Cc1cnn(-c2nn3c(c2Br)CCCC3)c1/C=C/c1ccccn1 [Compound 3.44, reference compound] | 1 (10% to less than 20%) | 2 (20% to less than 30%) | 2 (20% to less than 30%) | 2 (20% to less than 30%) | 0 (0% to less than 10% (growth inhibition rate)) | 1 (10% to less than 20%) | 0 (0% to less than 10% (growth inhibition rate)) | 1 (10% to less than 20%) | 0 (0% to less than 10% (growth inhibition rate)) | 2 (20% to less than 30%) | 2 (20% to less than 30%) | 3 (30% to less than 40%) | 0 (0% to less than 10% (growth inhibition rate)) | 1 (10% to less than 20%) | 0 (0% to less than 10% (growth inhibition rate)) | 0 (0% to less than 10% (growth inhibition rate)) | 1 (10% to less than 20%) | 2 (20% to less than 30%) | 0 (0% to less than 10% (growth inhibition rate)) | 0 (0% to less than 10% (growth inhibition rate)) | herbicidal efficacy, Digitaria ciliaris [11]: 0 (0% to less than 10% (growth inhibition rate)); herbicidal efficacy, Galinsoga parviflora [12]: 0 (0% to less than 10% (growth inhibition rate))
N#Cc1cnn(-c2nn3c(c2Cl)CCCC3)c1N=Cc1ccncc1 [Compound 23] | 10 (100%) | 10 (100%) | 10 (100%) | 10 (100%) | 10 (100%) | 10 (100%) | 0 (0% to less than 10% (growth inhibition rate)) | 1 (10% to less than 20%) | 9 (90% to less than 100%) | 10 (100%) | 10 (100%) | 10 (100%) | 9 (90% to less than 100%) | 10 (100%) | 9 (90% to less than 100%) | 10 (100%) | 10 (100%) | 10 (100%) | 9 (90% to less than 100%) | 10 (100%) | herbicidal efficacy, Digitaria ciliaris [11]: 9 (90% to less than 100%); herbicidal efficacy, Galinsoga parviflora [12]: 10 (100%)
